From ChEMBL document CHEMBL1138823, “Diaminopyrimidine and diaminopyridine 5-HT7 ligands” (Bioorg Med Chem Lett, 2004)

How the values were obtained:
[1] = molecular target: 5-hydroxytryptamine receptor 7 (Homo sapiens, UniProt P34969); assay: Binding affinity against 5-Hydroxy tryptamine 7 receptor
[2] = molecular target: D(2) dopamine receptor (Homo sapiens, UniProt P14416); assay: Binding affinity against D2L receptor
[3] = molecular target: 5-hydroxytryptamine receptor 2C (Rattus norvegicus) (UniProt P08909); assay: Binding affinity against 5-Hydroxy tryptamine 2C receptor
[4] = molecular target: Adrenergic receptor alpha-1 (Rattus norvegicus); assay: Binding affinity against Alpha1 adrenergic receptor

Sequence of 5-hydroxytryptamine receptor 7 (P34969 whole entry): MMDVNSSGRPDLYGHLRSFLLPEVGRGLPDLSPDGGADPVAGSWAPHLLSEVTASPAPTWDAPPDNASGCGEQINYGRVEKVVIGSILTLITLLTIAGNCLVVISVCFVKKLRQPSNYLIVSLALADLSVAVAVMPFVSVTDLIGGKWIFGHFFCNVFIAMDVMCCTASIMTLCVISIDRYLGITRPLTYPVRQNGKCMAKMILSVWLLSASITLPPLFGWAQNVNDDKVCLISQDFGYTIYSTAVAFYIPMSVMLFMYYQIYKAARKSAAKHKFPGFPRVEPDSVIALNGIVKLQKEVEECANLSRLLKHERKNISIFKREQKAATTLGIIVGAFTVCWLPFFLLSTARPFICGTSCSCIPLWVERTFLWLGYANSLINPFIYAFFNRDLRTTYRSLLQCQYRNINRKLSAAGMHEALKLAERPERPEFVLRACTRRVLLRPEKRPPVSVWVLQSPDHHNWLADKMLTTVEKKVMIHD
Sequence of D(2) dopamine receptor (P14416 whole entry): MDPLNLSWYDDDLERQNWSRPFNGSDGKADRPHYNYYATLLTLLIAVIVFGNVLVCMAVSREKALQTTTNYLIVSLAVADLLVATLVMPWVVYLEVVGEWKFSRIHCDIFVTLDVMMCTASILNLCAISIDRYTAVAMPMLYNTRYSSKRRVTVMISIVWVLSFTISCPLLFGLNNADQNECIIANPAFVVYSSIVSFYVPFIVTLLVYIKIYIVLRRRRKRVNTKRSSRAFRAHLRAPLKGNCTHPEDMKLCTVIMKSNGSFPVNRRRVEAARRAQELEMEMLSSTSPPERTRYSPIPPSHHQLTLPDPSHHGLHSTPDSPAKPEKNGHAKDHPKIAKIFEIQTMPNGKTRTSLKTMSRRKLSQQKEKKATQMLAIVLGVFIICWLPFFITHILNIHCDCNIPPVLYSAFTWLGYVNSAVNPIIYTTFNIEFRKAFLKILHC
Sequence of 5-hydroxytryptamine receptor 2C (Rattus norvegicus) (P08909 whole entry, looked up): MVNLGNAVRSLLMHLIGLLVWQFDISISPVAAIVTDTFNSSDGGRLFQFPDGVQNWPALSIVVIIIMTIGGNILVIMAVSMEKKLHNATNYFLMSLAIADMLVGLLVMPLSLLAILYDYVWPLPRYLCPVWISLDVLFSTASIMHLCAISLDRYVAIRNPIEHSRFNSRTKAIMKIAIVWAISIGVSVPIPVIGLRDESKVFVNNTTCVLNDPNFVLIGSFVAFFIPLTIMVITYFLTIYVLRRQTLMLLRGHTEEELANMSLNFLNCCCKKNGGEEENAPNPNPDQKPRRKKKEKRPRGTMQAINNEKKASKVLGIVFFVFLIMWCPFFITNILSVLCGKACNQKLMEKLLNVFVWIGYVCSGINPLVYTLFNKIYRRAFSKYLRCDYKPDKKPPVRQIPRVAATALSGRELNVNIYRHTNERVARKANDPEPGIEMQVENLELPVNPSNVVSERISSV

SMILES	Ki [1] [nM]	Ki [2] [nM]	Ki [3] [nM]	Ki [4] [nM]
C[C@H](Nc1cc(NCCc2ccccc2)ncn1)c1ccccc1	33			
C[C@H](Nc1ccnc(NCCOc2ccccc2)c1)c1ccccc1	0.4			
C[C@H](Nc1cncc(NCCc2ccccc2)c1)c1ccccc1	13			
C[C@H](Nc1cccc(NCCOc2ccccc2)n1)c1ccccc1	> 1000			
C[C@H](Nc1cccc(NCCOc2ccccc2)c1)c1ccccc1	> 1000			
C[C@H](Nc1cccc(NCCc2ccccc2)c1)c1ccccc1	> 1000			
C[C@H](Nc1cc(NCCOc2ccc(F)cc2)ncn1)c1ccccc1	5			
C[C@H](Nc1ccnc(NCCc2ccccc2)n1)c1ccccc1	0.6			
C[C@H](Nc1ccnc(NCCOc2ccccc2)n1)c1ccccc1	2			
C[C@H](Nc1cncc(NCCOc2ccccc2)c1)c1ccccc1	4			
C[C@H](Nc1cccc(NCCc2ccccc2)n1)c1ccccc1	> 1000			
CC(Nc1nccc(NCCc2ccccc2)n1)c1ccccc1 (racemic)	6			

More lines, now with the values ahead:

Ki [1] [nM]	Ki [2] [nM]	Ki [3] [nM]	Ki [4] [nM]	SMILES
0.4				C[C@H](Nc1ccnc(NCCc2ccc(F)cc2)c1)c1ccccc1
3				C[C@H](Nc1cc(NCCc2ccccc2)ccn1)c1ccccc1
16				C[C@H](Nc1cncc(NCCc2ccc(F)cc2)c1)c1ccccc1
5				C[C@H](Nc1cc(NCCc2ccc(F)cc2)ncn1)c1ccccc1
0.3				C[C@H](Nc1ccnc(NCCc2ccccc2)c1)c1ccccc1
0.3	> 1000			C[C@H](Nc1ccnc(NCCOc2ccc(F)cc2)n1)c1ccccc1
0.4	> 1000	13		C[C@H](Nc1cc(NCCOc2ccc(F)cc2)ccn1)c1ccccc1
0.4				C[C@H](Nc1cc(NCCOc2ccccc2)ccn1)c1ccccc1
4	> 1000	476		C[C@H](Nc1cncc(NCCOc2ccc(F)cc2)c1)c1ccccc1
4				C[C@H](Nc1cc(NCCc2ccc(F)cc2)ccn1)c1ccccc1
0.2	370	15		C[C@H](Nc1ccnc(NCCOc2ccc(F)cc2)c1)c1ccccc1
1	> 1000	40	57	CC(Nc1nccc(NCCOc2ccc(F)cc2)n1)c1ccccc1 (racemic)
6				CC(Nc1ccnc(NCCc2ccc(F)cc2)n1)c1ccccc1 (racemic)
